Data from article PMC10661964 (Current Drug Metabolism, 2023).
Several values for one entry are separate records, joined by “and”; a condition that tells them apart may be missing. Identical values can stand only once. Like-named read-outs stand apart in the source and are kept apart here.

Key:
[1] = Quantification of nifurtimox and metabolites in human urine (LC-HRMS); assay type: in vivo; conditions: for AE,urine(0–24h), fasted patients: mean of 6 fasted patients with Chagas disease; for AE,urine(0–24h), fasted patients / AE,urine(0–24h), fed patients: single oral 120 mg nifurtimox; for AE,urine(0–24h), fed patients: mean of 6 fed patients with Chagas disease
Description: Urine samples were collected from fasted and fed patients pre-dose (0 h) and at four post-dose intervals (0-4, 4-8, 8-12, and 12-24 h) and stored frozen until required. For analysis, urine samples were thawed at room temperature and homogenized by vortex mixing. […] Equal volumes (75 µL) of an internal standard solution of [^2H8]-nifurtimox dissolved in water (10 µg/mL) were added to each urine, calibration, or control sample and mixed thoroughly. Samples from 6 patients were then analyzed using liquid chromatography-high-resolution mass spectrometry (LC-HRMS) with a 1290 Infinity LC system equipped with a diode array detector and an Orbitrap Fusion™ Lumos™ Tribrid™ HRMS (Thermo Fisher Scientific, Bremen, Germany) with a heated electrospray ionization source. For quantification, the LC conditions were as described above for analysis of rat plasma, and the HRMS parameters were: mass range, 120-600 Da in full scan mode and all ion fragmentation in positive ionization mode; resolution, 240,000; ion source voltage, 3500 V; capillary temperature, 300°C; source temperature, 60°C.
The system was calibrated using the relative peak area as a function of concentration, which was obtained by linear regression. Quantification was performed on a mass basis (μg/mL), with the final calculation for the percentage of dose excreted in urine made on a molar basis to account for the substantial differences (up to ~2.5-fold) in the molecular masses of the compounds of interest. The analytical precision for all analytes was in the range of 1.1% to 4.4%, with an accuracy of 94% to 107%. All concentrations in μg/mL were back-calculated to nmol/mL, and these concentrations were then used to calculate a total molar amount based on the urine volume collected during each interval.

[2] = Quantification of nifurtimox and metabolites in human plasma (LC-HRMS), plasma PK; assay type: in vivo; conditions: fed; for AUC(tlast-∞) (extrapolated proportion): pooled plasma of 6 patients, single oral 120 mg nifurtimox; for AUC, % of total quantified exposure: sum of AUC of nifurtimox and M-1 to M-6 = 100%, single oral 120 mg
Description: Plasma samples from timepoints 0, 0.25, 0.5, 0.75, 1, 1.5, 2, 2.5, 3, 4, 6, 8, 12, 15, and 24 h from 6 patients were analyzed. Blood samples were collected into lithium heparinized tubes. Blood cells and plasma were then separated by centrifugation, and the plasma was stored frozen until needed. For the analysis, plasma samples were thawed at room temperature and homogenized by vortex mixing. Equal volumes of plasma from the six patients for each timepoint were combined to a pooled volume of 200 µL. To precipitate protein, a 3-fold volume of acetonitrile/0.5% formic acid (v/v in water) was added to each pooled sample which was thoroughly mixed and then centrifuged at 20,000 g. […] For all analytes, the analytical precision ranged from 0.1% to 8.8%, and the accuracy was 95% to 108%.

[3] = biological target: T1, CYP 2C8 (Homo sapiens, UniProt P10632); test: CYP inhibition with probe substrate; assay type: in vitro ADME; conditions: probe substrate amodiaquine
T1 sequence (P10632 1-490): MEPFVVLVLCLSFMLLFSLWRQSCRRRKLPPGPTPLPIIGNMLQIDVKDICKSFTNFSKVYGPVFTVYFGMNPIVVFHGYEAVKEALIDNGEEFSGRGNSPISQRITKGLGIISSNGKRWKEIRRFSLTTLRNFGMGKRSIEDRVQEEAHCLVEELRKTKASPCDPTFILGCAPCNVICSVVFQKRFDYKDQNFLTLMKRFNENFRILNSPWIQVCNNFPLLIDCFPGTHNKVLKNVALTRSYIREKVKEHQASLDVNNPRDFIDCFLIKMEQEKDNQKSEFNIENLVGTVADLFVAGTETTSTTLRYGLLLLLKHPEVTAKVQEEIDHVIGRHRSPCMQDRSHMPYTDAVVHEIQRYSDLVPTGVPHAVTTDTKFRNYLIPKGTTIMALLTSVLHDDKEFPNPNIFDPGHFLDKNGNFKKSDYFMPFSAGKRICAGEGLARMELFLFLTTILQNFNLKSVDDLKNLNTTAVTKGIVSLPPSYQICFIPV
From the text: The inhibition of cytochrome P450 (CYP) isoforms and a range of cellular transporters (except multidrug and toxin extrusion [MATE] proteins), as well as the induction of CYP isoforms were investigated using previously described methods.

[4] = 30-min preincubation, read-out: Pre- IC50 (+ NADPH)
[5] = coincubation, read-out: Co- IC50

| Compound | AE,urine(0–24h), fasted patients [1] | AE,urine(0–24h), fed patients [1] | AUC(tlast-∞) (extrapolated proportion) [2] [%] | AUC, % of total quantified exposure [2] | IC50 [3, 4] [µM] | IC50 [3, 5] [µM] | TDI (time-dependent inhibition) [3] | unchanged nifurtimox in urine, on average ([1]; fed and fasted patients, single oral 120 mg) |
| --- | --- | --- | --- | --- | --- | --- | --- | --- |
| CC1CS(=O)(=O)CCN1n1cc(SCC(N)C(=O)O)ccc1=O (stereo not shown) [M-4] | 5.9 % of dose | 12.3 % of dose | 48.4 | 8.9% and 8.9^a % | > 20 | > 20 | No | – |
| CC1CS(=O)(=O)CCN1N (stereo not shown) [M-6] | 13.7 % of dose | 20.8 % of dose | 21.8 | 69.4% | > 100 | > 100 | No | – |
| CC1CS(=O)(=O)CCN1/N=C/c1ccc([N+](=O)[O-])o1 (stereo not shown) [Nifurtimox, (E)-N-(3-methyl-1,1-dioxo-1,4-thiazinan-4-yl)-1-(5-nitrofuran-2-yl) methanimine, reference compound] | 0.03 % of dose | 0.07 % of dose | 0.6 | 16.9% | > 50 | > 50 | No | less than 0.1 % of the administered dose |
